Source: patent US4895842A, “Phenylalanine derivative and proteinase inhibitor” (Shosuke Okamoto, priority 1985, dated 1990)
Where a name gives a salt, the structure may show the parent alone. Read-outs that look alike come from different tables or passages of the source.

Key:
[1] = molecular target: T1, bovine thrombin (Bos taurus, UniProt P00735); test: Antithrombin activity: inhibition of S-2238 decomposition; assay type: biochemical
Description: (ii) Determination of inhibition activity for S-2238 decomposition
An inhibitor sample is dissolved in a 0.05M Tris-hydrochloric acid buffer solution (pH=8.3) to make a total volume of 400 μl. To this solution, 50 μl of a 0.2 mM S-2238 solution is added and the mixture is incubated at a temperature of 37° C. for 5 minutes in a constant temperature bath. Then, 50 μl of a 0.2 unit/ml bovine thrombin solution is added thereto and the absorbance, at 405 nm, of the p-nitroaniline formed per minute is determined at a temperature of 37° C. by using the so-called initial velocity method. Thus, the concentration I50 (μmol) of the inhibitor sample at which the absorbance is one half (i.e., 1/2) of that obtained in the absence of the inhibitor sample, is determined.

[2] = molecular target: T2, human plasmin (Homo sapiens, UniProt P00747); test: biochemical
T2 sequence (P00747 581-810 limits assumed): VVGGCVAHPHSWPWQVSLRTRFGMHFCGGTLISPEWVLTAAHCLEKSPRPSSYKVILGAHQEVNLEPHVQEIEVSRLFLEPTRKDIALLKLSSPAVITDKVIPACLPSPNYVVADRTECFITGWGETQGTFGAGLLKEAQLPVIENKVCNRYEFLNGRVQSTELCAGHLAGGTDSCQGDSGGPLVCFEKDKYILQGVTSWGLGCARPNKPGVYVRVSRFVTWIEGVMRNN
T2 sequence (P00747 97-580 partner limits assumed): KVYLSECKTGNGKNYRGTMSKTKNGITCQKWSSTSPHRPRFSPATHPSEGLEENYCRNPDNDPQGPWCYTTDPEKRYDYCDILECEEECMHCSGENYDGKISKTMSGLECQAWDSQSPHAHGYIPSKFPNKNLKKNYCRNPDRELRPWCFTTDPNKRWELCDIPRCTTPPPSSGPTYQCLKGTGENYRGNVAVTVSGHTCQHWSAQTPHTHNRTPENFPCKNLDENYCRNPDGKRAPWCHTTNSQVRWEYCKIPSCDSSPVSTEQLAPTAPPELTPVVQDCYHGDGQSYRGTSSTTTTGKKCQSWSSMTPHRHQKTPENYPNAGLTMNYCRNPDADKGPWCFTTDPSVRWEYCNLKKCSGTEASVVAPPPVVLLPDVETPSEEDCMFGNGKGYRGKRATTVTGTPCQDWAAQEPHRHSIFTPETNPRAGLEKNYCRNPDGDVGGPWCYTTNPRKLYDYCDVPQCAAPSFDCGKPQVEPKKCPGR
Description: An inhibitor sample is dissolved in a 0.05M Tris-hydrochloric acid buffer solution (pH=7.4) to make the total volume of 400 μl. […] Then, 50 μl of a 0.2 casein unit/ml human plasmin is added and the mixture is incubated at a temperature of 37° C. for 4 minutes. Thereafter, the reaction is stopped by adding 50 μl of 50% acetic acid.
Thus, the concentration I50 (μmol) of the inhibitor sample, at which the absorbance is one half (i.e., 1/2) of that obtained in the absence of the inhibitor, is determined.

[3] = molecular target: T2, human plasmin; test: Antiplasmin activity: inhibition of fibrin decomposition; assay type: biochemical
Description: (i) Determination of inhibition activity for fibrin decomposition
An inhibitor sample is dissolved in a 0.18M borate-physiological salt buffer solution (pH=7.4) to make the total volume to 600 μl. To this buffer solution, 200 μl of a 0.2% bovine fibrinogen, 100 μl of a 0.3 casein unit/ml human plasmin solution, and 100 μl of a 50 unit/ml bovine thrombin solution, all dissolved in the above-mentioned buffer, are added at a temperature of 37° C. in a constant temperature bath. Then, the dissolution time of the fibrin mass formed above is determined.

[4] = molecular target: human plasma kallikrein (Homo sapiens, UniProt P03952); test: Anti-plasma kallikrein activity: inhibition of S-2302 decomposition; assay type: biochemical; conditions: S-2302 substrate, read-out: Plasma Kallikrein S-2302 (I50)
Sequence of human plasma kallikrein (P03952 391-638 limits assumed): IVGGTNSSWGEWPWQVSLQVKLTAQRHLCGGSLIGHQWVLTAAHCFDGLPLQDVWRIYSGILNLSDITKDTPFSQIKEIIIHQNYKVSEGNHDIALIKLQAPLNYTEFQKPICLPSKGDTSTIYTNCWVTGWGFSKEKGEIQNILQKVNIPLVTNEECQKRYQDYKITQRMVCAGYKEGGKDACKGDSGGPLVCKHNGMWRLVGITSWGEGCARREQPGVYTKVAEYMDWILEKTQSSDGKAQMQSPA
Sequence of human plasma kallikrein (P03952 20-390 partner limits assumed): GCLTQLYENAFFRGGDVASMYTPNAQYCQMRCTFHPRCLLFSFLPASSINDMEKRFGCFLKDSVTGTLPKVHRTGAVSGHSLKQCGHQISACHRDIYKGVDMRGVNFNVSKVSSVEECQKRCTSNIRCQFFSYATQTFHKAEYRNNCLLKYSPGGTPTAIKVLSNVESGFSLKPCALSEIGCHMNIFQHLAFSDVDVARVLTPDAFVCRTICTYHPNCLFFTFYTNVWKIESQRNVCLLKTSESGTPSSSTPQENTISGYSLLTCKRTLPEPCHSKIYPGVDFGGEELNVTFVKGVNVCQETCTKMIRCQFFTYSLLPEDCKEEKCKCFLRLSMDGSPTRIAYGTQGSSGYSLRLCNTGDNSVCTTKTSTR
Description: Determination of inhibition activity for S-2302 decomposition
An inhibitor sample is dissolved in a 0.05M Tris-hydrochloric acid buffer solution (pH=7.8) to make the total volume to 400 μl. To this solution, 50 μl of a 2 mM S-2302 solution is added and the mixture is incubated at a temperature of 37° C. for 5 minutes in a constant temperature bath. Then, 50 μl of a 0.12 unit/ml human plasma kallikrein is added and the mixture is incubated at a temperature of 37° C. for 5 minutes. Thereafter, 50 μl of 50% acetic acid is added to terminate the reaction. The absorbance of the p-nitroaniline formed in the reaction mixture is measured at 405 nm. Thus, the concentration I50 (μmol) of the inhibitor sample, at which the absorbance is one half (i.e., 1/2) of that obtained in the absence of the inhibitor sample, is determined.

[5] = molecular target: human urokinase (Homo sapiens, UniProt P00749); test: biochemical; conditions: S-2444 substrate, read-out: Urokinase S-2444 (I50)
Description: Determination of inhibition activity for S-2444 decomposition
An inhibitor sample is dissolved in a 0.05M Tris-hydrochloric acid buffer solution (pH=8.8) to make the total volume to 400 μl. To this solution, 50 μl of a 1 mM S-2444 solution is added and the mixture is incubated at a temperature of 37° C. for 5 minutes in a constant temperature bath. Then, 50 μl of a 500 unit/ml human urokinase is added and the mixture is incubated at a temperature of 37° C. for 5 minutes. Thereafter, 50 μl of 50% acetic acid is added to terminate the reaction. The absorbance of the p-nitroaniline formed in the reaction mixture is measured at 405 nm. Thus, the concentration I50 (μmol) of the inhibitor sample, at which the absorbance is one half (i.e., 1/2) of that obtained in the absence of the inhibitor sample, is determined.

[6] = molecular target: T1, bovine thrombin; test: Antithrombin activity: inhibition of fibrin formation from fibrinogen; assay type: biochemical
Description: (i) Determination of inhibition activity against fibrin formation
An inhibitor sample is dissolved in a 0.18M borate-physiological salt buffer solution (pH=7.4) to make the total volume to 500 μl. To this solution, 400 μl of a 0.2% bovine fibrinogen solution and 100 μl of a 4 unit/ml bovine thrombin solution are added at a temperature of 37° C. in a constant temperature bath. Thus, a coagulation time is determined. The inhibitor concentration I50 (μmol), at which the coagulation time obtained in the absence of the inhibitor is extended twice, is determined.

[7] = molecular target: T3, bovine trypsin (Bos taurus, UniProt P00760); test: Antitrypsin activity: inhibition of S-2238 decomposition; assay type: biochemical; conditions: Table 2; S-2238 substrate, pH 8.1, 37° C.; read-out: Trypsin S-2238 (I50)
T3 sequence (P00760 24-246): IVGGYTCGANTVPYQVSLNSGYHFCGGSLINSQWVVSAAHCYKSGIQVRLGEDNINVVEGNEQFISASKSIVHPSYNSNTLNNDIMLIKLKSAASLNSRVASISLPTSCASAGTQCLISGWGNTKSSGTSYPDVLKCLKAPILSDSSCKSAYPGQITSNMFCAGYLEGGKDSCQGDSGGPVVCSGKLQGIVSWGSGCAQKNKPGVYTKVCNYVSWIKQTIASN
Description: Determination of inhibition activity against S-2238 decomposition
An inhibitor sample is dissolved in a 0.05M Tris-imidazole buffer solution (pH=8.1) and 125 μl of a 1 mM S-2238 solution is added to make the total volume to 1.20 ml. The mixture is incubated at a temperature of 37° C. for 5 minutes in a constant temperature bath. To this mixture, 0.05 ml of bovine trypsin is added and the absorbance, at 405 nm, of the p-nitroaniline formed per minute is determined at a temperature of 37° C. by using the so-called initial velocity method. Thus, the concentration I50 (μmol) of the inhibitor sample, at which the absorbance is one half (i.e., 1/2) of that obtained in the absence of the inhibitor sample, is determined.

[8] = Table 2, S-2238 substrate, pH 8.3, 37° C., read-out: Thrombin S-2238 (I50)
[9] = Table 2, concentration at which fibrin dissolution time is extended twice, pH 7.4, 37° C., read-out: Plasmin Fibrin (I50)

SMILES | IC50 [1, 8] | IC50 ([4]; Table 2, pH 7.8, 37° C.) | IC50 ([5]; Table 2, pH 8.8, 37° C.) | IC50 [6] | IC50 ([2]; read-out: Plasmin S-2251 (I50)) | IC50 [3, 9] | also measured
NC[C@H]1CC[C@H](C(=O)NC(Cc2ccc([N+](=O)[O-])cc2)C(=O)Nc2ccc(C(=O)c3ccccc3)cc2)CC1 (mixture of isomers) [Compound No. 31, N-(trans-4-aminomethylcyclohexylcarbonyl)-4-nitro-D,L-phenylalanine 4-benzoylanilide hydrochloride] | > 100 µM | 6 µM | 3.3 µM | > 100 µM | – | – | IC50 [2]: 14 µM; IC50 [3]: 3.3 µM
CC(=O)c1ccc(NC(=O)[C@H](Cc2ccccc2)NC(=O)[C@H]2CC[C@H](CN)CC2)cc1 [Compound No. 2, N-(trans-4-aminomethylcyclohexylcarbonyl)-L-phenylalanine 4-acetylanilide] | > 1000 µM | – | – | > 1000 µM | – | – | IC50 [7]: 1.3 µM
NC[C@H]1CC[C@H](C(=O)N[C@@H](Cc2ccc(OCc3ccccc3)cc2)C(=O)Nc2cccnc2)CC1 [Compound No. 16, N-(trans-4-aminomethylcyclohexylcarbonyl)-4-benzyloxy-L-phenylalanine 3-pyridylamide dihydrochloride] | > 400 µM | – | – | > 500 µM | – | – | –
CC(=O)NC(Cc1ccc(OCc2ccccc2)cc1)C(=O)N(C)C (centres unmarked) [Table 3 Compound No. 5, reference compound] | – | – | – | – | – | – | IC50 ([1]; Table 4, comparative compounds of Table 3, S-2238 substrate, pH 8.3, read-out: Thrombin S-2238 (I50)): > 200 µM; IC50 ([2]; Table 4, comparative compounds of Table 3, S-2251 substrate, pH 7.4, 37° C., read-out: Plasmin S-2251 (I50)): > 200 µM; IC50 ([3]; Table 4, comparative compounds of Table 3, fibrin dissolution time extended twice, read-out: Plasmin Fibrin (I50)): > 200 µM; IC50 ([4]; Table 4, comparative compounds of Table 3, pH 7.8): > 200 µM; IC50 ([5]; Table 4, comparative compounds of Table 3, pH 8.8): > 200 µM; IC50 ([6]; Table 4, comparative compounds of Table 3, coagulation time extended twice, read-out: Thrombin Fibrinogen (I50)): > 200 µM
CC(=O)c1ccc(NC(=O)[C@H](Cc2ccc(OC(C)C)cc2)NC(=O)[C@H]2CC[C@H](CN)CC2)cc1 [compound 14] | > 400 µM | 2.1 µM | 80 µM | > 500 µM | 168 µM | 4.4 µM | –
CC(=O)c1ccc(NC(=O)[C@H](Cc2ccc(OCc3c(Cl)cccc3Cl)cc2)NC(=O)[C@H]2CC[C@H](CN)CC2)cc1 [compound 20] | > 50 µM | 0.16 µM | 120 µM | > 25 µM | 1.4 µM | 0.31 µM | –
Cc1ccc(NC(=O)[C@H](Cc2ccc(OCc3ccccc3)cc2)NC(=O)[C@H]2CC[C@H](CN)CC2)cc1 [compound 26] | > 100 µM | 2.1 µM | 560 µM | > 100 µM | 6.9 µM | 1.1 µM | –
NCC1CCC(C(=O)NC(Cc2ccc(OCc3ccccc3)cc2)C(=O)NCc2ccc(F)cc2)CC1 (centres unmarked) [compound 111] | > 50 µM | > 50 µM | > 300 µM | – | 5.2 µM | 1.1 µM | IC50 [7]: 5.8 µM

Continued, in another order:

IC50 [1, 8] | IC50 ([4]; Table 2, pH 7.8, 37° C.) | IC50 ([5]; Table 2, pH 8.8, 37° C.) | IC50 [6] | IC50 ([2]; read-out: Plasmin S-2251 (I50)) | IC50 [3, 9] | SMILES | also measured
> 1000 µM | > 1000 µM | > 1000 µM | > 1000 µM | > 1000 µM | 190 µM | NCc1ccc(C(=O)N[C@@H](Cc2ccc(OCc3ccccc3)cc2)C(=O)Nc2ccc(C(=O)O)cc2)cc1 [compound 139] | –
– | 18 µM | > 100 µM | > 200 µM | 8.8 µM | 2.5 µM | COc1ccc(NC(=O)[C@H](Cc2ccc(OCc3ccccc3)cc2)NC(=O)c2ccc(CN)cc2)cn1 [compound 140] | IC50 [1]: > 200 µM
– | 0.37 µM | 43 µM | > 50 µM | 0.23 µM | 0.051 µM | CC(=O)c1ccc(NC(=O)[C@H](Cc2ccc(OC(=O)OCc3ccccc3Br)cc2)NC(=O)[C@H]2CC[C@H](CN)CC2)cc1 [compound 144] | IC50 [7]: 0.95 µM
86 µM | 0.75 µM | 31 µM | > 50 µM | 0.56 µM | 0.075 µM | CC(=O)c1ccc(NC(=O)[C@H](Cc2ccc(OC(=O)OCc3ccccc3Cl)cc2)NC(=O)[C@H]2CC[C@H](CN)CC2)cc1 [compound 145] | –
> 100 µM | 0.58 µM | 45 µM | > 100 µM | 0.64 µM | 0.29 µM | CC(=O)c1ccc(NC(=O)[C@H](Cc2ccc(OC(=O)OCc3ccccc3)cc2)NC(=O)[C@H]2CC[C@H](CN)CC2)cc1 [compound 146] | –
